Data published in patent US20240059677A1, “SUBSTITUTED PYRIMIDINE DERIVATIVES AS NICOTINIC ACETYLCHOLINESTERASE RECEPTOR ALPHA 6 MODULATOR” (priority 2020, published 2024).

Target: T1, human nAChRα6-α3 chimera, in addition to β2 and β3^V273S subunits (Homo sapiens, UniProt P32297+Q15825)
T1 construct: expressed in transfected cells
Assay: fluorescence-based calcium assay: inhibition of nicotine stimulated nAChRα6 activity (FLIPR)
Conditions: HEK cell line stably expressing the receptor; 10 min pre-incubation, nicotine EC80; 10-point curve, duplicate wells; read-out: IC50
Experimental: The ability of the test compounds to inhibit nicotine stimulated nAChRα6 activity was determined in a fluorescence-based calcium assay. Compound activity was determined using a HEK cell line stably expressing a human nAChRα6-α3 chimera, in addition to β2 and β3^V273S subunits (as in Capelli et al, Br J Pharmacol 163(2): 313-29 2011). In this cell line, nicotine stimulated an increase in intracellular calcium concentration, measured as an increase in fluorescence when cells were incubated with a calcium sensitive dye. Test compounds were pre-incubated with cells prior to nicotine stimulation to detect any reduction in the magnitude of the nicotine response.
The day prior to the assay, compounds were serially diluted in DMSO (200× final assay concentration (FAC)), in 384-well plates which were then stored in the dark at room temperature (RT) until use. Cells were seeded at 20 k/well in black, poly-D-lysine coated, clear bottom 384-well plates and incubated for 4 hours at 37° C., followed by overnight incubation at 30° C. The following day, the DMSO compound plate was diluted 1:20 (10×FAC) in assay buffer (HEPES buffered saline solution with 10 mM HEPES, 0.1% bovine serum albumin, 1 mM probenecid). A nicotine solution was prepared in assay buffer (7×FAC) and dispensed into a 384-well plate. The growth media was removed from the cell plate, replaced with 53 μl calcium dye/well (Calcium 5; Molecular Devices) and the plate incubated at 30° C. for 45 minutes. Test compounds were then added to the cells (7 μl of 10×FAC) and incubated for 10 minutes, after which nicotine EC80 (10 μl of 7×FAC) was added and changes in fluorescence measured using a FLIPR plate reader (Molecular Devices).
Compound activity was examined using a 10-point, half-log concentration-response range and each concentration was tested in duplicate wells.

T1 sequence (Q05901 25-458 V273S): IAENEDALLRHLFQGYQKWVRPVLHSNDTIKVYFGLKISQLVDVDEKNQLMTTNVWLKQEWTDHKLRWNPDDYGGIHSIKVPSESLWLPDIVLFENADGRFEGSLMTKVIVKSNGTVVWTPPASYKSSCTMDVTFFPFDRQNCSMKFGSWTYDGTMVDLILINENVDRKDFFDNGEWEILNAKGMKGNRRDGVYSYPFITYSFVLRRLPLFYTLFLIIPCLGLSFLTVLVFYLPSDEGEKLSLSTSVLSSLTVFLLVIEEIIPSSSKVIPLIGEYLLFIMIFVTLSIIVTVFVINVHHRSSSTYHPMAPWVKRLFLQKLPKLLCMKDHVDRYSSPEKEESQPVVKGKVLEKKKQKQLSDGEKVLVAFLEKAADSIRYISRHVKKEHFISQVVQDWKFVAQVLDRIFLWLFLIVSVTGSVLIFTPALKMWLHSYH
T1 sequence (P17787 26-502, stated change not applied, further chain): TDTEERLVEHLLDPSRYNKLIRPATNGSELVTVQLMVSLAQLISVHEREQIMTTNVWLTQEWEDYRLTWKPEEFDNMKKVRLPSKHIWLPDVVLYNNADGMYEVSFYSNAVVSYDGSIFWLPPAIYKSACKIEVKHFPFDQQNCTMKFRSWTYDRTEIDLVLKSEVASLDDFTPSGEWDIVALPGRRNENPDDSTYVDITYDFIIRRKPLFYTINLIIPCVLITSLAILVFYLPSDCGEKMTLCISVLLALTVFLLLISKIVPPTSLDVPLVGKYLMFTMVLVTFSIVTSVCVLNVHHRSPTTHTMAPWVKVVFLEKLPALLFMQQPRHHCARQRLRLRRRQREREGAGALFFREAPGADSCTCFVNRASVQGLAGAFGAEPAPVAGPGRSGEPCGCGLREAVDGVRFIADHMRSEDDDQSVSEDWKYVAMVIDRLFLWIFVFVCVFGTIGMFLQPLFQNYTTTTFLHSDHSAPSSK
T1 sequence (Q15825+P32297 fused with the stated changes): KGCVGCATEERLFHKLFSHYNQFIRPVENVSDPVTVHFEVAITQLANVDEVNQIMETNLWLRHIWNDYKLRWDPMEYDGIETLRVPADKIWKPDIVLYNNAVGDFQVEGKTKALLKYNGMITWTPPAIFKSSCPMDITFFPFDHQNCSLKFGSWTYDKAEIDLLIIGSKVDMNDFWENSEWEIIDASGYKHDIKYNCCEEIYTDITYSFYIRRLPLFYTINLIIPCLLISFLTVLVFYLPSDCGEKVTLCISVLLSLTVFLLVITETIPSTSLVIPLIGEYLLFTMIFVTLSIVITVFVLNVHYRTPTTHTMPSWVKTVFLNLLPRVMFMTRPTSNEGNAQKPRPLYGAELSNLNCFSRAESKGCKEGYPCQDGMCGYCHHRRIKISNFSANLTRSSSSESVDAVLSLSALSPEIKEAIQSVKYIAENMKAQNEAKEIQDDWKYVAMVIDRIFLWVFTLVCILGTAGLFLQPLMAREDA

Structure (SMILES) | IC50
COc1ccc(-c2nnc(NCC3CCCN3C)nc2C)c(F)c1 (racemic) [Example 18, 6-(2-fluoro-4-methoxyphenyl)-5-methyl-N-((1-methylpyrrolidin-2-yl)methyl)-1,2,4-triazin-3-amine] | 526 nM
Cc1nc(N[C@@H]2CNC[C@@H]2F)ncc1-c1ccc(C(F)(F)F)cc1F (relative stereo) [Example 112, N-((cis)-4-fluoropyrrolidin-3-yl)-5-(2-fluoro-4-(trifluoromethyl)phenyl)-4-methyl-pyrimidin-2-amine] | 107 nM
Cc1nc(N[C@H]2CNC[C@@H]2F)ncc1-c1ccc(C(F)(F)F)cc1F (relative stereo) [Example 114, N-((trans)-4-fluoropyrrolidin-3-yl)-5-(2-fluoro-4-(trifluoromethyl)phenyl)-4-methyl-pyrimidin-2-amine] | 142 nM
COc1ccc(-c2nnc(NCC3CCCN3C)nc2C)c(F)c1 (single isomer, unassigned) [Example 18a, 6-(2-fluoro-4-methoxyphenyl)-5-methyl-N-((1-methylpyrrolidin-2-yl)methyl)-1,2,4-triazin-3-amine] | 331 nM
COc1ccc(-c2nnc(NCC3CCCN3C)nc2C)c(F)c1 (single isomer, unassigned) [Example 18b, 6-(2-fluoro-4-methoxyphenyl)-5-methyl-N-((1-methylpyrrolidin-2-yl)methyl)-1,2,4-triazin-3-amine] | 442 nM
COc1ccc(-c2cnc(NCC3CCCN3C)nc2C)c(F)c1 (single isomer, unassigned) [Example 28a, 5-(2-fluoro-4-methoxyphenyl)-4-methyl-N-((1-methylpyrrolidin-2-yl)methyl)pyrimidin-2-amine] | 54 nM
COc1ccc(-c2cnc(NCC3CCCN3C)nc2C)c(F)c1 (single isomer, unassigned) [Example 28b, 5-(2-fluoro-4-methoxyphenyl)-4-methyl-N-((1-methylpyrrolidin-2-yl)methyl)pyrimidin-2-amine] | 10 nM
COc1ccc(-c2cnc(NC3CCC(N(C)C)C3)nc2C#N)c(F)c1 (single isomer, unassigned) [Example 38a, 2-((3-(dimethylamino)cyclopentyl)amino)-5-(2-fluoro-4-methoxyphenyl) pyrimidine-4-carbonitrile] | 59 nM
COc1ccc(-c2cnc(NC3CCC(N(C)C)C3)nc2C#N)c(F)c1 (single isomer, unassigned) [Example 38b, 2-((3-(dimethylamino)cyclopentyl)amino)-5-(2-fluoro-4-methoxyphenyl) pyrimidine-4-carbonitrile] | 70 nM
Cc1nc(NC2CCCC(N(C)C)C2)nnc1-c1ccc(F)cc1F (single isomer, unassigned) [Example 39a, N^1-(6-(2,4-difluorophenyl)-5-methyl-1,2,4-triazin-3-yl)-N^3,N^3-dimethylcyclohexane-1,3-diamine] | 904 nM
Cc1nc(NC2CCCC(N(C)C)C2)nnc1-c1ccc(F)cc1F (single isomer, unassigned) [Example 39b, N^1-(6-(2,4-difluorophenyl)-5-methyl-1,2,4-triazin-3-yl)-N^3,N^3-dimethylcyclohexane-1,3-diamine] | 901 nM
COc1ccc(-c2cnc(NC3CCC(N(C)C)C3)nc2C)c(F)c1 (single isomer, unassigned) [Example 44a, N^1-(5-(2-fluoro-4-methoxyphenyl)-4-methyl-pyrimidin-2-yl)-N^3,N^3-dimethylcyclopentane-1,3-diamine] | 76 nM
COc1ccc(-c2cnc(NC3CCC(N(C)C)C3)nc2C)c(F)c1 (single isomer, unassigned) [Example 44b, N^1-(5-(2-fluoro-4-methoxyphenyl)-4-methyl-pyrimidin-2-yl)-N^3,N^3-dimethylcyclopentane-1,3-diamine] | 88 nM
COc1ccc(-c2cnc(NC3CCCC(OC)C3)nc2C)c(F)c1 (single isomer, unassigned) [Example 53a, 5-(2-fluoro-4-methoxyphenyl)-N-(3-methoxycyclohexyl)-4-methyl-pyrimidin-2-amine] | 1240 nM
COc1ccc(-c2cnc(NC3CCCC(OC)C3)nc2C)c(F)c1 (single isomer, unassigned) [Example 53b, 5-(2-fluoro-4-methoxyphenyl)-N-(3-methoxycyclohexyl)-4-methyl-pyrimidin-2-amine] | 734 nM
COc1ccc(-c2nnc(NCC3CCCN3C)nc2C)c(F)c1 (single isomer, unassigned) [Example 54a, 6-(2-fluoro-4-methoxyphenyl)-5-methyl-N-((1-methylpyrrolidin-2-yl)methyl)-1,2,4-triazin-3-amine] | 331 nM

Structure (SMILES) | IC50
COc1ccc(-c2nnc(NCC3CCCN3C)nc2C)c(F)c1 (single isomer, unassigned) [Example 54b, 6-(2-fluoro-4-methoxyphenyl)-5-methyl-N-((1-methylpyrrolidin-2-yl)methyl)-1,2,4-triazin-3-amine] | 442 nM
Cc1nc(NC2CCCC(N(C)C)C2)ncc1-c1ccc(F)cc1F (single isomer, unassigned) [Example 55a, N^1-(5-(2,4-difluorophenyl)-4-methyl-pyrimidin-2-yl)-N^3,N^3-dimethylcyclohexane-1,3-diamine] | 98 nM
Cc1nc(NC2CCCC(N(C)C)C2)ncc1-c1ccc(F)cc1F (single isomer, unassigned) [Example 55b, N^1-(5-(2,4-difluorophenyl)-4-methyl-pyrimidin-2-yl)-N^3,N^3-dimethylcyclohexane-1,3-diamine] | 81 nM
COc1ccc(-c2cnc(NC3CCCC(N(C)C)C3)nc2C#N)c(F)c1 (single isomer, unassigned) [Example 56a, 2-((3-(dimethylamino)cyclohexyl)amino)-5-(2-fluoro-4-methoxyphenyl) pyrimidine-4-carbonitrile] | 133 nM
COc1ccc(-c2cnc(NC3CCCC(N(C)C)C3)nc2C#N)c(F)c1 (single isomer, unassigned) [Example 56b, 2-((3-(dimethylamino)cyclohexyl)amino)-5-(2-fluoro-4-methoxyphenyl) pyrimidine-4-carbonitrile] | 162 nM
COc1ccc(-c2nnc(NCC3CCCCN3C)nc2C)c(F)c1 (single isomer, unassigned) [Example 57a, 6-(2-fluoro-4-methoxyphenyl)-5-methyl-N-((1-methylpiperidin-2-yl)methyl)-1,2,4-triazin-3-amine] | 139 nM
COc1ccc(-c2nnc(NCC3CCCCN3C)nc2C)c(F)c1 (single isomer, unassigned) [Example 57b, 6-(2-fluoro-4-methoxyphenyl)-5-methyl-N-((1-methylpiperidin-2-yl)methyl)-1,2,4-triazin-3-amine] | 144 nM
CN(C)C1CCC(Nc2ncc(-c3ccc(F)cc3F)c(C#N)n2)C1 (single isomer, unassigned) [Example 58a, 5-(2,4-difluorophenyl)-2-((3-(dimethylamino)cyclopentyl)amino) pyrimidine-4-carbonitrile] | 38 nM
CN(C)C1CCC(Nc2ncc(-c3ccc(F)cc3F)c(C#N)n2)C1 (single isomer, unassigned) [Example 58b, 5-(2,4-difluorophenyl)-2-((3-(dimethylamino)cyclopentyl)amino) pyrimidine-4-carbonitrile] | 56 nM
CN(C)C1CCCC(Nc2ncc(-c3ccc(F)cc3F)c(C#N)n2)C1 (single isomer, unassigned) [Example 59a, 5-(2,4-difluorophenyl)-2-((3-(dimethylamino)cyclohexyl)amino) pyrimidine-4-carbonitrile] | 202 nM
CN(C)C1CCCC(Nc2ncc(-c3ccc(F)cc3F)c(C#N)n2)C1 (single isomer, unassigned) [Example 59b, 5-(2,4-difluorophenyl)-2-((3-(dimethylamino)cyclohexyl)amino) pyrimidine-4-carbonitrile] | 134 nM
Cc1nc(NC(C)C2CCN(C)C2)ncc1-c1ccc(F)cc1F (single isomer, unassigned) [Example 64a, 5-(2,4-difluorophenyl)-4-methyl-N-(1-(1-methylpyrrolidin-3-yl)ethyl) pyrimidin-2-amine] | 90 nM
Cc1nc(NC(C)C2CCN(C)C2)ncc1-c1ccc(F)cc1F (single isomer, unassigned) [Example 64b, 5-(2,4-difluorophenyl)-4-methyl-N-(1-(1-methylpyrrolidin-3-yl)ethyl) pyrimidin-2-amine] | 88 nM
Cc1nc(NC2CC(N(C)C)C2)ncc1-c1ccc(F)cc1F (single isomer, unassigned) [Example 68a, N^1-(5-(2,4-difluorophenyl)-4-methyl-pyrimidin-2-yl)-N^3,N^3-dimethylcyclobutane-1,3-diamine] | 78 nM
Cc1nc(NC2CC(N(C)C)C2)ncc1-c1ccc(F)cc1F (single isomer, unassigned) [Example 68b, N^1-(5-(2,4-difluorophenyl)-4-methyl-pyrimidin-2-yl)-N^3,N^3-dimethylcyclobutane-1,3-diamine] | 67 nM
